NC(=O)N1c2ccccc2C=Cc2ccccc21
Details | solubility (mole fraction)
in chloroform, 278.15 K | 0.0577
in chloroform, 288.65 K | 0.0627
in chloroform, 297.55 K | 0.0679
in chloroform, 307.15 K | 0.0756
in chloroform, 318.95 K | 0.086
in chloroform, 327.95 K | 0.0968
in cyclohexylamine, 287.25 K | 0.0149
in cyclohexylamine, 302.35 K | 0.0193
in cyclohexylamine, 317.65 K | 0.0259
in cyclohexylamine, 332.85 K | 0.0353
in cyclohexylamine, 348.15 K | 0.05
in cyclohexylamine, 366.15 K | 0.0657
in ethyl acetate, 281.35 K | 0.00272
in ethyl acetate, 298.55 K | 0.00436
in ethyl acetate, 306.55 K | 0.00548
in ethyl acetate, 314.05 K | 0.0068
in ethyl acetate, 326.85 K | 0.00959
in ethyl acetate, 346.65 K | 0.0142
in ethylene glycol, 279.15 K | 0.00098
in ethylene glycol, 288.55 K | 0.00243
in ethylene glycol, 316.85 K | 0.00861
in ethylene glycol, 335.25 K | 0.0189
in ethylene glycol, 346.55 K | 0.0294
in ethylene glycol, 356.95 K | 0.0429
in methyl acetate, 281.95 K | 0.00521
in methyl acetate, 292.35 K | 0.00665
in methyl acetate, 301.85 K | 0.00843
in methyl acetate, 311.55 K | 0.0109

Reference: BigSolDB 2.1
